Measured values reported in US20260042764A1, “COMPOSITIONS AND METHODS FOR INHIBITION OF KRAS” (TheRas, Inc., priority 2022, published 2026).

Legend:
[1] = test system: H358 cells (KRAS G12C); experiment: 3D Cell viability assay in H358 cells (Biological Example 6); type: cell-based; conditions: Homo sapiens, NCI-H358; H358 (KRAS G12C) spheroids, 72 hours
In short: (§1)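 Luminescent ATP read-out (CellTiter-Glo 3D) after 72 h compound exposure gives viability of preformed spheroids. Cells were seeded at 1000 per well in low-attachment plates and left 48 h to aggregate before dosing with nine three-fold concentrations at 0.25% DMSO.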

[2] = test system: MKN1 cells (KRAS amplification); experiment: Cell-based pERK HTRF assay in MKN1 cells (Biological Example 5)
In short: (§2)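 Cells seeded at 2.5×10^4/well in 10% FBS medium overnight, then treated 2 h at 37 °C with a 9-point, 3-fold compound series (0.25% DMSO). Lysates read by HTRF for pERK1/2 (Thr202/Tyr204), 665/620 nm ratio; EC50 from four-parameter fit.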

[3] = test system: RKN cells (KRAS G12V); experiment: 3D Cell viability assay in RKN cells (Biological Example 6); type: cell-based; conditions: RKN (KRAS G12V) spheroids, 72 hours
In short: as §1

[4] = test system: AsPC-1 cells (KRAS G12D); experiment: 3D Cell viability assay in AsPC-1 cells (Biological Example 6); type: cell-based; conditions: Homo sapiens, ASPC1; AsPC-1 (KRAS G12D) spheroids, 72 hours
In short: as §1

[5] = test system: Capan-2 cells (KRAS G12V); experiment: 3D Cell viability assay in Capan-2 cells (Biological Example 6); type: cell-based; conditions: Homo sapiens; Capan-2 (KRAS G12V) spheroids, 72 hours
In short: as §1

[6] = test system: MKN1 cells (KRAS amplification); experiment: 3D Cell viability assay in MKN1 cells (Biological Example 6); type: cell-based; conditions: Homo sapiens, MKN-1; MKN (MKN1, KRAS amplification) spheroids, 72 hours
Experimental: Biological Example 6: 3D Cell viability assay in AsPC-1, SW1900, HPAC, Capan-2, RKN, H358, HCT116, KP-2, H1573, A549, MKN1, and HT1080 cells
The inhibition of cellular viability as a result of test compound treatment in a spheroid assay was measured using the CellTiter-Glow 3D Cell Viability Assay (Promega).
On Day 1, 1000 cells per well were seeded in 150 μL of complete growth media supplemented with 10% fetal bovine serum (FBS) and incubated at 37° C., in the presence of 5% CO2 in 96-well ultra-low attachment microplates (Corning) for 48 hours undisturbed to allow spheroids to form.
Following spheroid formation, cells were treated with compounds diluted in DMSO at 0.25% final DMSO concentration. Compounds were dosed in a 9-point concentration curve with three-fold dilution between concentrations. Cells were incubated in the presence of compound for 72 hours at 37° C., in the presence of 5% CO2.
Following this incubation period, the kit-provided CTG reagent was allowed to equilibrate for 30 minutes at room temperature, 150 μL of equilibrated CTG reagent was added to each well, and the plate was sealed before shaking at 250 rpm for 10 minutes at room temperature to lyse the cells, 150 μL of lysate per well was transferred to a 96-well plate and luminescence was read on a CLARIOstar plate reader.
Data was imported into the Prism software package (Graphpad) and EC50 values were calculated using the log (inhibitor) vs, response—variable slope (Four parameters) model.

[7] = test system: Capan-2 cells (KRAS G12V); experiment: Cell-based pERK HTRF assay in Capan-2 cells (Biological Example 5)
In short: as §2

[8] = test system: SW1900 cells (KRAS G12D); experiment: 3D Cell viability assay in SW1900 cells (Biological Example 6); type: cell-based; conditions: Homo sapiens; SW1990 (text: SW1900, KRAS G12D) spheroids, 72 hours
In short: as §1

[9] = test system: SW1900 cells (KRAS G12D); experiment: Cell-based pERK HTRF assay in SW1900 cells (Biological Example 5)
Experimental: (§3) Biological Example 5: Cell-based PERK HTRF assay in AsPC-1, SW1900, HPAC, Capan-2, RKN, H358, HCT116, KP-2, H1573, A549, MKN1, and HT1080 cells
(§4) The inhibition of ERK phosphorylation, as measured using the HTRF Advanced Phospho-ERK 1/2 (Thr202/Tyr204) Detection Assay kit (Perkin Elmer), was used to determine the effectiveness of test compounds in disrupting KRAS-driven protein/effector signaling in cells.
(§5) On day 1, cells were seeded into 96-well plates at 2.5×10^4 cells/well in 100 μL of complete growth media supplemented with 10% fetal bovine serum (FBS) and incubated at 37° C., in the presence of 5% CO2.
(§6) On day 2, cells were treated with compounds diluted in DMSO at 0.25% final DMSO concentration. Compounds were dosed in a 9-point concentration curve with three-fold dilution between concentrations. Cells were incubated in the presence of compound for two hours at 37° C. Following this treatment period, cells were harvested by aspirating the media, adding 40 μL of kit-supplied 1x lysis buffer per well, and shaking for 30 minutes at 250 rpm at room temperature.
(§7) Following cell lysis, samples were homogenized by pipetting up and down twenty times and 16 μL of cell lysate per well was transferred from the 96-well cell culture plate to two wells of a 384-well detection plate. A complete detection buffer was prepared by diluting D2 and Eu Cryptate antibodies 1:20 in kit-provided detection solution, 4 μL of complete detection buffer was then added to each well with lysate. Plates were incubated with gentle rocking for 24 hours at 4° C.
(§8) Following this incubation period, plates were centrifuged at 500×g for one minute and analyzed on a CLARIOstar plate reader. Data was imported into Microsoft Excel and the signal from the 665 nm channel was divided by the signal from the 620 nm channel. % pERK was calculated as: […]
(§9) Data was imported to the Prism software package (Graphpad) and EC50 values were calculated using the log (inhibitor) vs, response—variable slopc (Four parameters) model.

[10] = test system: RKN cells (KRAS G12V); experiment: Cell-based pERK HTRF assay in RKN cells (Biological Example 5)
In short: as §2

[11] = test system: AsPC-1 cells (KRAS G12D); experiment: Cell-based pERK HTRF assay in AsPC-1 cells (Biological Example 5)
In short: as §2

[12] = test system: HPAC cells (KRAS G12D); experiment: 3D Cell viability assay in HPAC cells (Biological Example 6); type: cell-based; conditions: Homo sapiens, HPAC, 72 h, HPAC (KRAS G12D) spheroids
In short: as §1

[13] = test system: HPAC cells (KRAS G12D); experiment: Cell-based pERK HTRF assay in HPAC cells (Biological Example 5)
Experimental: as §3, §4, §5, §6, §7, §8, §9

[14] = test system: H358 cells (KRAS G12C); experiment: Cell-based pERK HTRF assay in H358 cells (Biological Example 5)
Experimental: as §3, §4, §5, §6, §7, §8, §9

[15] = test system: HT1080 cells (NRAS); experiment: 3D Cell viability assay in HT1080 cells (Biological Example 6); type: cell-based; conditions: Homo sapiens, HT-1080; HT1080 (NRAS) spheroids, 72 hours
In short: as §1

[16] = test system: HT1080 cells (NRAS); experiment: Cell-based pERK HTRF assay in HT1080 cells (Biological Example 5)
Experimental: as §3, §4, §5, §6, §7, §8, §9

[17] = Homo sapiens, MKN-1, MKN cells (MKN1, KRAS amplification)
[18] = Homo sapiens, Capan-2, Capan-2 (KRAS G12V) cells
[19] = Homo sapiens, SW1990, SW1990 cells (text: SW1900, KRAS G12D)
[20] = Homo sapiens, ASPC1, AsPC-1 (KRAS G12D) cells
[21] = Homo sapiens, NCI-H358, H358 (KRAS G12C) cells

SMILES	IC50 [1] [nM]	IC50 [2, 17] [nM]	IC50 [4] [nM]	IC50 [5] [nM]	IC50 [6] [nM]	IC50 [7, 18] [nM]	IC50 [8] [nM]	IC50 [9, 19] [nM]	IC50 [11, 20] [nM]	IC50 [12] [nM]	IC50 ([13]; Homo sapiens, HPAC) [nM]	IC50 [14, 21] [nM]	IC50 [15] [nM]	IC50 ([16]; Homo sapiens, HT-1080) [nM]	also measured
CCN(c1nc(OC[C@@]23CCCN2C[C@H](F)C3)nc2c(F)c(-c3ccc(F)c4sc(N)c(C#N)c34)c(C(F)(F)F)cc12)[C@H]1C[C@H]2CN(C)C(=O)N2C1 (atropisomer, axis not shown; (aS)) [Compound 543, 2-amino-4-((S)-4-(ethyl((6S,7aS)-2-methyl-3-oxohexahydro-1H-pyrrolo[1,2-c]imidazol-6-yl)amino)-8-fluoro-2-(((2R,7aS)-2-fluorotetrahydro-1H-pyrrolizin-7a(5H)-yl)methoxy)-6-(trifluoromethyl)quinazolin-7-yl)-7-fluorobenzo[b]thiophene-3-carbonitrile]	≤ 100	≤ 100	≤ 100	≤ 100	≤ 100	≤ 100	≤ 100	≤ 100	≤ 100	≤ 100	≤ 100	≤ 100	–	–	IC50 [3]: ≤ 100 nM; IC50 [10]: ≤ 100 nM
CCN(c1nc(OC[C@@]23CCCN2C[C@H](F)C3)nc2c(F)c(-c3ccc(F)c4sc(N)c(C#N)c34)c(C(F)(F)F)cc12)[C@H]1C[C@H]2COC(=O)N2C1 (atropisomer, axis not shown; (aS)) [Compound 518, 2-amino-4-((S)-4-(ethyl((6S,7aS)-3-oxotetrahydro-1H,3H-pyrrolo[1,2-c]oxazol-6-yl)amino)-8-fluoro-2-(((2R,7aS)-2-fluorotetrahydro-1H-pyrrolizin-7a(5H)-yl)methoxy)-6-(trifluoromethyl)quinazolin-7-yl)-7-fluorobenzo[b]thiophene-3-carbonitrile]	≤ 100	≤ 100	≤ 100	≤ 100	≤ 100	≤ 100	≤ 100	≤ 100	≤ 100	≤ 100	100 to 1000	≤ 100	–	–	IC50 [3]: ≤ 100 nM; IC50 [10]: ≤ 100 nM
CCOC(=O)N1CC[C@H](N(CC)c2nc(OC[C@@]34CCCN3C[C@H](F)C4)nc3c(F)c(-c4ccc(F)c5sc(N)c(C#N)c45)c(C(F)(F)F)cc23)C1 [Compound 467]	≤ 100	≤ 100	≤ 100	≤ 100	≤ 100	≤ 100	≤ 100	≤ 100	100 to 1000	> 1000	100 to 1000	≤ 100	> 1000	> 1000	–
N#Cc1c(N)sc2c(F)ccc(-c3c(C(F)(F)F)cc4c(N5CCn6nc(N7CCOCC7)cc6C5)nc(OC[C@@]56CCCN5C[C@H](F)C6)nc4c3F)c12 [Compound 485]	≤ 100	≤ 100	≤ 100	≤ 100	100 to 1000	≤ 100	≤ 100	≤ 100	100 to 1000	100 to 1000	100 to 1000	≤ 100	> 1000	> 1000	–
CCN(c1nc(OC[C@@]23CCCN2C[C@H](F)C3)nc2c(F)c(-c3ccc(F)c4sc(N)c(C#N)c34)c(C(F)(F)F)cc12)[C@H]1CCN(C(=O)C(C)C)C1 (atropisomer, axis not shown) [Compound 468]	–	–	–	–	–	–	–	–	–	–	–	–	–	–	IC50 ([2]; MKN cells (MKN1, KRAS amplification)): > 1000 nM; IC50 ([7]; Capan-2 (KRAS G12V) cells): > 1000 nM; IC50 ([9]; SW1990 cells (text: SW1900, KRAS G12D)): > 1000 nM; IC50 [16]: > 1000 nM; IC50 ([11]; AsPC-1 (KRAS G12D) cells): > 1000 nM; IC50 [13]: > 1000 nM; IC50 ([14]; H358 (KRAS G12C) cells): > 1000 nM
CCN(c1nc(OC[C@@]23CCCN2C[C@H](F)C3)nc2c(F)c(-c3ccc(F)c4sc(N)c(C#N)c34)c(C(F)(F)F)cc12)[C@H]1C[C@H](C)N(C(=O)C2CC2)C1 [Compound 470]	≤ 100	≤ 100	≤ 100	≤ 100	≤ 100	≤ 100	≤ 100	≤ 100	≤ 100	> 1000	100 to 1000	≤ 100	> 1000	> 1000	–
CCN(c1nc(OC[C@@]23CCCN2C[C@H](F)C3)nc2c(F)c(-c3ccc(F)c4sc(N)c(C#N)c34)c(C(F)(F)F)cc12)[C@H]1CCS(=O)(=O)C1 (atropisomer, axis not shown) [Compound 492]	≤ 100	≤ 100	≤ 100	≤ 100	≤ 100	≤ 100	≤ 100	≤ 100	≤ 100	≤ 100	≤ 100	≤ 100	> 1000	> 1000	–
Cc1cc2n(n1)CCN(c1nc(OCC34CCCN3CC(F)C4)nc3c(F)c(-c4ccc(F)c5sc(N)c(C#N)c45)c(C(F)(F)F)cc13)C2 (stereo not drawn) [Compound 484]	≤ 100	≤ 100	≤ 100	≤ 100	100 to 1000	≤ 100	≤ 100	≤ 100	≤ 100	100 to 1000	100 to 1000	≤ 100	> 1000	> 1000	–
